Marks after values point to notes of the source that are not given here.
Assays:
GLP-1R = GLP-1R (Homo sapiens, UniProt P43220); experiment: Hit Hunter cAMP assay in cells stably expressing GLP-1R; format: cell-based; details: GLP-1R-expressing cells, values in nM
Text: (§1) Stably expressing GLP-1R, GIPR or GCGR cell lines were used to determine in-vitro potency of the compounds as described herein. Signaling by the GLP-1R, GIP-R, and GCG-R involves activation of adenylate cyclase and cAMP production. Hit Hunter® cAMP assays monitor the activation of GLP-1R, GIPR or GCGR via Gi and Gs secondary messenger signaling using a technology developed by DiscoverX which is called Enzyme Fragment Complementation (EFC) with β-galactosidase (β-Gal) as the functional reporter. The enzyme is split into two complementary portions: EA for Enzyme Acceptor and ED for Enzyme Donor. ED is fused to cAMP and in the assay competes with cAMP generated by cells for binding to a cAMP-specific antibody. Active β-Gal is formed by complementation of exogenous EA to any unbound ED cAMP. Active enzyme can then convert a chemiluminescent substrate, generating an output signal detectable on a standard microplate reader. Three different assays were performed using cells expressing either of the three receptors. cAMP Hunter cell lines were expanded from freezer stocks according to standard procedures. […] Microplates were read following signal generation with a PerkinElmer EnvisionTM instrument for chemiluminescent signal detection. […] Four parametric logistic curve was generated and EC50 was determined. […]

GIPR = molecular target: T1, GIPR (Homo sapiens, UniProt P48546); experiment: Hit Hunter cAMP assay in cells stably expressing GIPR; format: cell-based; details: values in nM, read-out: EC50 value GIP
T1 sequence (P48546 22-466): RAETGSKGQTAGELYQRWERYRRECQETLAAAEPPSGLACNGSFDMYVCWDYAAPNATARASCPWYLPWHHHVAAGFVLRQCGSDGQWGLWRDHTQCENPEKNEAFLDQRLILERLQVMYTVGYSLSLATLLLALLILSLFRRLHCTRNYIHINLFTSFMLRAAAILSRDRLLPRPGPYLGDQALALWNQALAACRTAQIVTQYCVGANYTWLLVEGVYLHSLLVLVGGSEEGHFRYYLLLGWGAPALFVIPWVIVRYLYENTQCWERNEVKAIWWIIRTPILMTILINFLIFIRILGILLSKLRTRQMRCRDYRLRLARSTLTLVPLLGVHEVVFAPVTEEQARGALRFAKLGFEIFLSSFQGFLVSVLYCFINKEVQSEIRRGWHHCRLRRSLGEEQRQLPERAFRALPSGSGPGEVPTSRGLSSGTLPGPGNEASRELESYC
Text: as §1

GCGR = GCGR (Homo sapiens, UniProt P47871); experiment: Hit Hunter cAMP assay in cells stably expressing GCGR; format: cell-based; details: values in nM, read-out: EC50 value GCG
Chain of GCGR (P47871 26-477, species assumed): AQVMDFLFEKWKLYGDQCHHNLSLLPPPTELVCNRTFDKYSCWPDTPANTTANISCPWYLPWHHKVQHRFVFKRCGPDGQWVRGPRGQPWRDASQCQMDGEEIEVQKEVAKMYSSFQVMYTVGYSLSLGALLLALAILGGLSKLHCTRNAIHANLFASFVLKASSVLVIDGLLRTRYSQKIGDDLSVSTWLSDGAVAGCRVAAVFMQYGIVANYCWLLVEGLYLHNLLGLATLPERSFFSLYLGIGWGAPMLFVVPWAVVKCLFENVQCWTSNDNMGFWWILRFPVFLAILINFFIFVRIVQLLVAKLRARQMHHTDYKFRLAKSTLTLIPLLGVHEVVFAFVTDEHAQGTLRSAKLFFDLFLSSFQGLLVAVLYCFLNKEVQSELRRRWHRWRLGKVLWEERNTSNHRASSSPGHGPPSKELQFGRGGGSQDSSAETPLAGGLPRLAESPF
Text: as §1

[1] = test system: Type 2 diabetes mouse (db/db) model; experiment: Efficacy study in db/db mice (blood glucose, body weight, food consumption); format: in vivo; details: 10 nM/kg s.c. single dose, mean (n=6)
Description: The effect of the compounds as described herein on blood glucose, food intake and body weight were studied in mice. This study was performed in Type 2 diabetes mouse (db/db) model. The animals were divided into 9 treatment groups (n=6): a diabetic control group, Compound 12 (10 nM/kg), Compound 13 (10 nM/kg), Compound 26 (10 nM/kg), Compound 14 (10 nM/kg), Compound 15 (10 nM/kg), Compound 21 (10 nM/kg), Compound 22 (10 nM/kg), and Tirzepatide (10 nM/kg). Baseline blood glucose was measured from all the animals. All the animals were administered with test item subcutaneously. Blood glucose was measured at 4 hr, 8 hr, 12 hr, 24 hr, 48 hr, 72 hr, and 96 hr post treatment. Delta blood glucose (mM) was calculated. Body weight changes and cumulative food consumption were measured at 48 hr and 96 hr post treatment. Table 3. Effect on Blood Glucose

Chain of GLP-1R (P43220 24-463, species assumed): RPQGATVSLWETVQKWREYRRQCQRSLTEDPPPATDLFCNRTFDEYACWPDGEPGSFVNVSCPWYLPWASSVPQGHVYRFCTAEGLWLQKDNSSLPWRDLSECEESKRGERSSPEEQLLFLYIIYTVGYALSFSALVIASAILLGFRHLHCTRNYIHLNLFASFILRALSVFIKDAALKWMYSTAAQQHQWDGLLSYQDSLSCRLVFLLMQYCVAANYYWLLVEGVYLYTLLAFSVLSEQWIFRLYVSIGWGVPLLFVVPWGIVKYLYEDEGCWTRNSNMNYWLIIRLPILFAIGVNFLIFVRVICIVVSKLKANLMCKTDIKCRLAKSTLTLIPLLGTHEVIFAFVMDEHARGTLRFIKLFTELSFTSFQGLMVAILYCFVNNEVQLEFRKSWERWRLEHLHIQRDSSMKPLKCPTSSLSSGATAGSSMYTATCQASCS

## CC[C@H](C)[C@H](NC(=O)[C@H](Cc1ccccc1)NC(=O)[C@H](C)NC(=O)C(C)(C)NC(=O)[C@H](CCC(N)=O)NC(=O)[C@H](C)NC(=O)[C@H](CCCCNC(=O)COCCOCCNC(=O)C(C)(C)NC(=O)CC[C@H](NC(=O)CCCCCCCCCCCCCCCCCCC(=O)O)C(=O)O)NC(=O)[C@H](CCCCN)NC(=O)[C@H](CC(=O)O)NC(=O)[C@H](CC(C)C)NC(=O)[C@](C)(CC(C)C)NC(=O)[C@@H](NC(=O)[C@H](CO)NC(=O)[C@H](Cc1ccc(O)cc1)NC(=O)[C@H](CC(=O)O)NC(=O)[C@H](CO)NC(=O)[C@@H](NC(=O)[C@H](Cc1ccccc1)NC(=O)[C@@H](NC(=O)CNC(=O)[C@H](CCC(N)=O)NC(=O)C(C)(C)NC(=O)[C@@H](N)Cc1ccc(O)cc1)[C@@H](C)O)[C@@H](C)O)[C@@H](C)CC)C(=O)N[C@@H](CCC(=O)O)C(=O)N[C@@H](Cc1ccc(O)cc1)C(=O)N[C@@H](CC(C)C)C(=O)N[C@@H](CC(C)C)C(=O)N[C@@H](CCC(=O)O)C(=O)NCC(=O)NCC(=O)N1CCC[C@H]1C(=O)N[C@@H](CO)C(=O)N[C@@H](CO)C(=O)NCC(=O)N[C@@H](C)C(=O)N1CCC[C@H]1C(=O)N1CCC[C@H]1C(=O)N1CCC[C@H]1C(=O)N[C@@H](CO)C(N)=O [Compound 13]
GLP-1R
  EC50: > 2.4 nM
GIPR
  EC50: > 1.5 nM
GCGR
  EC50: > 1.8 nM
[1]; 0-48 hr
  Cumulative Food Consumption (g) 0-48 hr: 4.1*** g
[1]; 0-96 hr
  Cumulative Food Consumption (g) 0-96 hr: 11.2*** g
[1]; 4 hr post treatment
  Delta Blood Glucose (mM): -7.4* mM
[1]; 8 hr post treatment
  Delta Blood Glucose: -5.7 mM
[1]; 12 hr post treatment
  Delta Blood Glucose (mM): -9.4** mM
[1]; 24 hr post treatment
  Delta Blood Glucose (mM): -14.4*** mM
[1]; 48 hr post treatment
  Delta Blood Glucose (mM): -13.9*** mM
[1]; 48 hr
  Body Weight Change (%) 48 hr: -10.3*** %
[1]; 72 hr post treatment
  Delta Blood Glucose (mM): -12.1*** mM
[1]; 96 hr post treatment
  Delta Blood Glucose: -5.6 mM
[1]; 96 hr
  Body Weight Change (%) 96 hr: -6.3*** %
